Experimental data taken from patent US20250002463A1, “NEW SALT FORMS OF AMILORIDE AND ITS DERIVATIVES FOR PHARMACEUTICAL USE” (PSOMRI Holding AB, priority 2021, published 2025).
Several values for one entry are separate records, joined by “and”; a condition that tells them apart may be missing. Equal entries are not always repeated.

Key:
[1] = Polymorphism: solid forms found in salt screen by HT-XRPD; type: physicochemical; details: Example 1 salt screen in MeOH, DME, THF
Protocol: The precipitated solids were analyzed by high throughput X-ray powder diffractometry (HT XRPD). Liquid phases (both solutions and mother liquors) were evaporated at ambient conditions and the residual solids were analyzed by HT XRPD.
The salt screen experiments were carried out in methanol (MeOH), 1,2-dimethoxyethane (DME) and tetrahydrofuran (THF).

[2] = Aqueous solubility of salts, Example 1 (aliquot addition; HPLC after 24 h at RT; pH of solutions/mother liquors); details: Example 1; RT; aliquot addition (ranges) or HPLC after 24 h, not in Table 3
Protocol: The aqueous solubility of the salts was estimated qualitatively by the solvent aliquot addition method. Aliquots of water up to 500-600 μL were added to approximately 5 mg of salt. The solubility of the free base was also estimated.
The suspensions were let equilibrating at room temperature for 24 h. Afterwards, solids were separated from the liquid phases. The liquid phases were filtered and analyzed by HPLC to determine the solubility. The pH of solutions/mother liquors was also measured.
Suspensions of the two salts were prepared in water with a concentration of 9-10 mg/mL. The mixtures were let equilibrating at RT for 24 h. Afterwards, solids were separated from the liquid phases. The liquid phases were filtered and analyzed by HPLC to determine the solubility. The pH of mother liquors was also measured.

[3] = Hygroscopicity by Dynamic Vapor Sorption (DVS); type: physicochemical; details: based on water vapour uptake at 25° C./80% RH
Protocol: The hygroscopic behaviour of the salts was evaluated through Dynamic Vapor Sorption (DVS) measurements with an RH profile 40-95-0-40% at 25° C. and a dm/dt of 0.002. The classification of the hygroscopic behaviour is based on the water vapour uptake at 25° C./80% RH in first adsorption cycle of sorption isotherm.

[4] = Polymorphic landscape by thermocycling of amorphous salt in 15 solvents; type: physicochemical; details: for polymorphs found: Example 3, thermocycling from amorphous salt, 15 solvents; for HT-XRPD Vac.: vacuum-dried solid; for HT-XRPD Vac. (AAC): vacuum-dried solid after AAC 48 h; for HT-XRPD Evap.: evaporated liquid; for HT-XRPD Evap. (AAC): evaporated liquid after AAC 48 h
[5] = Intrinsic dissolution rate (rotating disc, μDiss) in water and FaSSIF; type: physicochemical; details: for IDR (mg/cm^2/min) Individual: single disc
Protocol: Rotating disc intrinsic dissolution determinations were performed with a μDiss apparatus (Pion, USA) equipped with 6 independent glass fiber probes each connected to a diode area. Before the start of the experiment the probes were calibrated using the spectrum of a Mercury 362 nm pen-ray lamp. Discs were prepared in a passivated aluminum dye with a mini-IDR press (Heath Scientific, UK).
Six dilutions of benzamil lactate salt were prepared in the dissolution media in the range from 0 to 0.5 mg/mL, and the solutions were stirred with a cross-shaped magnetic stirrer. These dilutions were used for the calibration curve which is used for the calculation of the amount of benzamil in solution. Moreover, the solutions were used to select the wavelength at which the samples were to be measured and to select the proper path length.
The dyes were placed in their Teflon holder magnet stirrer and placed into 20 mL glass vials. Before to the sample measurement, a blank of each media was taken in the respective channel. The experiment started by the gentle addition of the pre-warmed dissolution media. Vials were incubated at 37° C. under continuous stirring at 100 rpm for a maximum of 4 h. UV absorption was measured with the in-line probes at regular intervals. Upon completion of the experiment the pH of the solution was determined. Concentrations of API in solution were calculated with use of the calibration curve and plotted against time. Dissolution rates were calculated over the linear parts of the curves. All dissolution rate experiments were done in triplicate except for TFA1 which were done in duplicate due to the lack of material.

[6] = Physio-chemical stability study, open container 25° C./60% RH and 40° C./75% RH (UPLC, TGMS, HT-XRPD); type: physicochemical; details: for UPLC 1 week / UPLC 3 weeks / UPLC 3 days: chemical purity
Protocol: Open container at 25° C. and 60% RH • 2. Open container at 40° C. and 75% RH

[7] = Kinetic and thermodynamic solubility in water at 37° C. (1 h and 18 h, UPLC)
[8] = Physical stability under Accelerated Aging Conditions (AAC, 40° C./75% RH, 2 days), HT-XRPD
[9] = thermocycling in Acetone/water (95/5% v/v)
[10] = thermocycling in EtOH/water (95/5% v/v)
[11] = thermocycling in IPA/water (95/5% v/v)
[12] = open container 25° C. and 60% RH
[13] = open container 40° C. and 75% RH
[14] = water, 37° C., 30 mg/ml suspension

Polymorphism [1]: No
Polymorphism ([1]; listed as lactate salt): Only one polymorph
Water solubility [2]: 26 to 51 mg/mL
classification of hygroscopic behaviour [3]: slightly hygroscopic
polymorphs found ([4]; listed as benzamil lactate salt): not to be polymorphic
polymorphs found ([4]; listed as lactate salt): Only one polymorph
HT-XRPD Vac. ([4]; thermocycling in 1,4-Dioxane): LAC1
HT-XRPD Vac. (AAC) ([4]; thermocycling in 1,4-Dioxane): LAC1
HT-XRPD Vac. ([4]; thermocycling in ACN): LAC1
HT-XRPD Vac. (AAC) ([4]; thermocycling in ACN): LAC1
HT-XRPD Vac. ([4]; thermocycling in Acetone): LAC1
HT-XRPD Vac. (AAC) ([4]; thermocycling in Acetone): LAC1
HT-XRPD Vac. [4, 9]: LAC1
HT-XRPD Vac. (AAC) [4, 9]: LAC1
HT-XRPD Vac. ([4]; thermocycling in DME): LAC1
HT-XRPD Vac. (AAC) ([4]; thermocycling in DME): LAC1
HT-XRPD Vac. ([4]; thermocycling in EtOAc): LAC1
HT-XRPD Vac. (AAC) ([4]; thermocycling in EtOAc): LAC1
HT-XRPD Vac. ([4]; thermocycling in EtOH): LAC1
HT-XRPD Vac. (AAC) ([4]; thermocycling in EtOH): LAC1
HT-XRPD Evap. [4, 10]: LAC1
HT-XRPD Evap. (AAC) [4, 10]: LAC1
HT-XRPD Vac. [4, 10]: LAC1
HT-XRPD Vac. (AAC) [4, 10]: LAC1
HT-XRPD Vac. ([4]; thermocycling in IPA): LAC1
HT-XRPD Vac. (AAC) ([4]; thermocycling in IPA): LAC1
HT-XRPD Vac. [4, 11]: LAC1
HT-XRPD Vac. (AAC) [4, 11]: LAC1
HT-XRPD Vac. ([4]; thermocycling in MEK): LAC1
HT-XRPD Vac. (AAC) ([4]; thermocycling in MEK): LAC1
HT-XRPD Evap. ([4]; thermocycling in MeOH): Oil
HT-XRPD Evap. (AAC) ([4]; thermocycling in MeOH): Oil
HT-XRPD Vac. ([4]; thermocycling in TBME): LAC1
HT-XRPD Vac. (AAC) ([4]; thermocycling in TBME): LAC1
HT-XRPD Vac. ([4]; thermocycling in THF): LAC1
HT-XRPD Vac. (AAC) ([4]; thermocycling in THF): LAC1
HT-XRPD Evap. ([4]; thermocycling in Water): LAC1
HT-XRPD Evap. (AAC) ([4]; thermocycling in Water): LAC1
HT-XRPD Vac. ([4]; thermocycling in Water): ly
HT-XRPD Vac. (AAC) ([4]; thermocycling in Water): ly
dissolution rate compared with TFA2 and TFA1 [5]: significantly faster
IDR (mg/cm^2/min) Average ([5]; FaSSIF, 37° C., 100 rpm): 0.39 ± 0.11 mg/cm^2/min
IDR (mg/cm^2/min) Average ([5]; Water, 37° C., 100 rpm): 1.87 ± 0.06 mg/cm^2/min
time until the whole tablet has been dissolved ([5]; water, 37° C.): about 50 min
Intrinsic Dissolution Rate (IDR) ([5]; water, 37° C., 100 rpm, linear part (LAC1 1 to 36 min; TFA 10-100 min)): 1.87±0.06 mg/cm^2/min
UPLC t0 ([6]; chemical purity at start of stability study): 99.4%
UPLC 1 week [6, 12]: 99.4%
UPLC 3 weeks [6, 12]: 99.4%
UPLC 3 days [6, 12]: 99.4%
UPLC 1 week [6, 13]: 99.2%
UPLC 3 weeks [6, 13]: 99.4%
UPLC 3 days [6, 13]: 99.4%
physical and chemical stability ([6]; incubation for 3 weeks at 25° C./60% RH and 40° C./75% RH): physically and chemically stable
TGMS 1 week [6, 12]: <0.1% water
XRPD 1 week [6, 12]: LAC1
TGMS 3 weeks [6, 12]: <0.1% water
XRPD 3 weeks [6, 12]: LAC1
TGMS 3 days [6, 12]: 1.2% water
XRPD 3 days [6, 12]: LAC1
TGMS 1 week [6, 13]: 0.2% water
XRPD 1 week [6, 13]: LAC1
TGMS 3 weeks [6, 13]: <0.1% water
XRPD 3 weeks [6, 13]: LAC1
TGMS 3 days [6, 13]: 1.5% water
XRPD 3 days [6, 13]: LAC1
TGMS t0 ([6]; start of stability study): 0.4% water
XRPD t0 ([6]; start of stability study): LAC1
solubility compared with the TFA salts ([7]; overall conclusion of Example 3): significantly higher solubility
XRPD 1 h Amb. ([7]; residual solid after 1 h in water at 37° C., ambient-dried): LAC1
XRPD 1 h Vac. ([7]; residual solid after 1 h in water at 37° C., vacuum-dried): LAC1
XRPD 18 h Amb. ([7]; residual solid after 18 h in water at 37° C., ambient-dried): Am
XRPD 18 h Vac. ([7]; residual solid after 18 h in water at 37° C., vacuum-dried): LAC1
pH after 10 min [7, 14]: 5.9
pH after 1 h [7, 14]: 5.8
pH after 18 h [7, 14]: 5.8
Solubility (mg/mL) 1 h ([7]; water, 37° C., 1 h (kinetic), UPLC): 24.3 mg/mL
Solubility (mg/mL) 18 h ([7]; water, 37° C., 18 h (thermodynamic), UPLC): 23.6 mg/mL
Physically stable? ([8]; AAC, 2 days at 40° C. and 75% RH, solids from thermocycling): Yes
Physically stable after AAC ([8]; Example 1, 40° C./75% RH for 2 days): physically stable and Yes
physical stability upon exposure to AAC ([8]; Example 3 thermocycling solids, 2 days at 40° C. and 75% RH): physically stable
SMILES: CC(O)C(=O)O.NC(=NCc1ccccc1)NC(=O)c1nc(Cl)c(N)nc1N [LAC1]
IDR (mg/cm^2/min) Individual ([5]; FaSSIF, 37° C., 100 rpm): 0.285 mg/cm^2/min and 0.510 mg/cm^2/min and 0.389 mg/cm^2/min
IDR (mg/cm^2/min) Individual ([5]; Water, 37° C., 100 rpm): 1.870 mg/cm^2/min and 1.811 mg/cm^2/min and 1.933 mg/cm^2/min
